Test results from publication PMC6303142 (Saudi Journal of Biological Sciences, 2016).
≈ marks a conversion by molar mass, not a printed value. Where two headings read alike, the source gives them in different places.

Key:
Staphylococcus aureus = experiment: Broth microdilution MIC/MBC against planktonic cells; type: cell-based
sPLA2 = type: biochemical
soybean LOX-1 = biological target: T1, soybean LOX-1 (Glycine max, UniProt P08170); experiment: Lipoxygenase; type: biochemical
T1 sequence (P08170 1-839): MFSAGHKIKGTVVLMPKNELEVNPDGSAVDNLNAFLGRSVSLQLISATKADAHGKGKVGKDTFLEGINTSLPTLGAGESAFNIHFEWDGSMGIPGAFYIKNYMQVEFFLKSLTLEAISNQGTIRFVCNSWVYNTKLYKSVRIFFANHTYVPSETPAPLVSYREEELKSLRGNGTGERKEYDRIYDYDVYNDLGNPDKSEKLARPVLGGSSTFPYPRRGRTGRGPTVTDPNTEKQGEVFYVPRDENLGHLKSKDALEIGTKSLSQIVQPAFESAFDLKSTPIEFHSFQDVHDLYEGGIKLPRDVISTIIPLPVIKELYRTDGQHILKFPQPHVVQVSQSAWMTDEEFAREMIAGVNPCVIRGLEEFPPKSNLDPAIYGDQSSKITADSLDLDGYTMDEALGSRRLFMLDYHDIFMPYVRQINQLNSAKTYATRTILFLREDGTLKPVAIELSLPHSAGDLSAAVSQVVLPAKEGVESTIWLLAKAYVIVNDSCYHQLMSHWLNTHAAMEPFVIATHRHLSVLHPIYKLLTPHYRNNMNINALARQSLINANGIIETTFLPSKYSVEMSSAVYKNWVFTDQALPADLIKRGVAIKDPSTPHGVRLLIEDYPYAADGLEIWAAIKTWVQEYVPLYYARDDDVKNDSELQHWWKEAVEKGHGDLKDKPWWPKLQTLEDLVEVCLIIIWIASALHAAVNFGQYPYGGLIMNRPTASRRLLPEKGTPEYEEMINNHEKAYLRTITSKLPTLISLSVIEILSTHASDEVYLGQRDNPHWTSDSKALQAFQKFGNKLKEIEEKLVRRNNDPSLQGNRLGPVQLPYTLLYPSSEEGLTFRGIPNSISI

COX-2 = biological target: T2, COX-2 (Homo sapiens, UniProt P35354); experiment: Cyclooxygenase; type: biochemical
T2 sequence (P35354 18-604): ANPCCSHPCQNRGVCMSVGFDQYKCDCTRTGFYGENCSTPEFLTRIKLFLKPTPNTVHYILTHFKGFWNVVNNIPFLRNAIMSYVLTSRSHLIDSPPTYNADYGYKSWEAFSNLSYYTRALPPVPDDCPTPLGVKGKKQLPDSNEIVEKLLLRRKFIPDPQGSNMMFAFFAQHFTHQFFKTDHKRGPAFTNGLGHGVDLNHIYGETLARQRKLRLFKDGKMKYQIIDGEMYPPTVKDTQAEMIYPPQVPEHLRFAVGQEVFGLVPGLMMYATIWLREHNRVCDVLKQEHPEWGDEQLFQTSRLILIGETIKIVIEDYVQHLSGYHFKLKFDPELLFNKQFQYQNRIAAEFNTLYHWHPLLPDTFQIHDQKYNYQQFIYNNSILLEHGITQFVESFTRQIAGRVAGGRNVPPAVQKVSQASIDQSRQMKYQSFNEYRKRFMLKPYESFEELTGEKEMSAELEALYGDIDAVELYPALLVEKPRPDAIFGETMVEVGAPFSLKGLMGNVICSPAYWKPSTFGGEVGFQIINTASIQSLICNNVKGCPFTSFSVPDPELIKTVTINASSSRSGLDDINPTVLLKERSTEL

Artemia salina = experiment: General
S. aureus F7 strain = experiment: Electron microscopy; type: cell-based, Staphylococcus aureus; settings: DHC at MIC, 24 h, SEM and TEM
[1] = tested on: human hepatoma HepG2 cells; settings: ref Zampini et al. (2008); cited from earlier work
[2] = tested on: S. aureus (ATCC 25923 and F7 strains) biofilm; experiment: Biofilm formation; type: cell-based, Staphylococcus aureus; settings: 1/2 MIC, 24 h, F7 and ATCC 25923 strains, crystal violet
[3] = ATCC29213, S. aureus ATCC 29213, control strain
[4] = S. aureus clinical isolate 5 (F5), Met^r Oxa^r
[5] = S. aureus clinical isolate 7 (F7), Met^r Oxa^r Gen^r
[6] = S. aureus clinical isolate 8 (F8), Met^r Oxa^r
[7] = S. aureus clinical isolate 23 (F23), Met^r Oxa^r
[8] = S. aureus clinical isolate 31 (F31), Met^r Oxa^r Van^s

| Compound | MBC (Staphylococcus aureus; [3]) [µg/mL] | MBC (Staphylococcus aureus; [4]) [µg/mL] | MBC (Staphylococcus aureus; [5]) [µg/mL] | MBC (Staphylococcus aureus; [6]) [µg/mL] | MBC (Staphylococcus aureus; [7]) [µg/mL] | MBC (Staphylococcus aureus; [8]) [µg/mL] | Inhibition (%) sPLA2 (sPLA2; 10 μg/mL) [%] | IC50 (soybean LOX-1) [µM] | MIC (Staphylococcus aureus; [3]) [µg/mL] | MIC (Staphylococcus aureus; [4]) [µg/mL] | MIC (Staphylococcus aureus; [5]) [µg/mL] | MIC (Staphylococcus aureus; [6]) [µg/mL] | MIC (Staphylococcus aureus; [7]) [µg/mL] | MIC (Staphylococcus aureus; [8]) [µg/mL] | IC50 (COX-2) [µM] | also measured |
| --- | --- | --- | --- | --- | --- | --- | --- | --- | --- | --- | --- | --- | --- | --- | --- | --- |
| O=C1CC(c2ccccc2)Oc2cc(O)ccc21 (stereo not drawn) [HF, 7-hydroxyflavanone] | > 500 | > 500 | 200 (≈ 832 µM) | > 500 | > 500 | > 500 |  |  |  |  |  |  |  |  |  |  |
| COc1ccc2cc([C@H](C)C(=O)O)ccc2c1 [Naproxen, reference compound] |  |  |  |  |  |  |  |  |  |  |  |  |  |  |  | Inhibition (%) sPLA2 (sPLA2): 6.00 ± 0.40% |
| COc1c(O)ccc(C(=O)/C=C/c2ccccc2)c1O [DHMC, 2′,4′-dihydroxy-3′-methoxychalcone] | 200 (≈ 740 µM) | 200 (≈ 740 µM) | 200 (≈ 740 µM) | 200 (≈ 740 µM) | 200 (≈ 740 µM) | 200 (≈ 740 µM) | 38.18 ± 1.80 | 235 | 200 (≈ 740 µM) | 200 (≈ 740 µM) | 200 (≈ 740 µM) | 200 (≈ 740 µM) | 100 (≈ 370 µM) | 200 (≈ 740 µM) |  | activity against COX-2 (COX-2; tested concentrations 10–150 μg/mL): not active |
| O=c1c(O)c(-c2ccccc2)oc2cc(O)ccc12 [DHF, 3,7-dihydroxyflavone] | > 500 | > 500 | > 500 | 400 (≈ 1570 µM) | > 500 | > 500 | 2.70 ± 0.20 | 227 | 400 (≈ 1570 µM) | 200 (≈ 787 µM) | 200 (≈ 787 µM) | 25 (≈ 98.3 µM) | 200 (≈ 787 µM) | 200 (≈ 787 µM) | 100 | activity on sPLA2 (sPLA2; at the concentration assayed (10 μg/mL)): not active |
| [Na+].[Na+].[O]=[Cr](=[O])([O-])[O][Cr](=[O])(=[O])[O-] [sodium dichromate] |  |  |  |  |  |  |  |  |  |  |  |  |  |  |  | LC50 (concentration that kills 50% of the A. salina larvae) (Artemia salina): 30 µg/mL |
| O=C(/C=C/c1ccccc1)c1ccc(O)cc1O [DHC, 2′,4′-dihydroxychalcone] | 50 (≈ 208 µM) | 100 (≈ 416 µM) | 100 (≈ 416 µM) | 100 (≈ 416 µM) | 200 (≈ 832 µM) | 200 (≈ 832 µM) | 60.50 ± 2.90 | 414 | 50 (≈ 208 µM) | 25 (≈ 104 µM) | 25 (≈ 104 µM) | 25 (≈ 104 µM) | 25 (≈ 104 µM) | 100 (≈ 416 µM) | 7.16 | morphological changes in the cell appearance (S. aureus F7 strain): visible cellular aggregation, blebs on the cellular surface and cytoplasmic coagulation; genotoxicity [1]: did not find genotoxicity; biofilm formation inhibition [2]: most active pure compound |
